This is an account of results in patent publication US20110217293A1, “Uses of morelloflavone” (priority 2008, published 2011).

Entries after “also recorded” stand apart in the source; their conditions may differ.

The nature of data set [1]: Body weight in atherosclerosis study. The data set is classed as in vivo, mouse. How it is done: Twenty four (24) 8 week old Ldlr^−/−Apobec1^−/− mice were randomly assigned to either control group (normal rodent chow, Lab Diet, Richmond, Ind., N=12) or morelloflavone group (normal rodent chow supplemented with 0.003% (w/w) morelloflavone, N=12). The 0.003% (w/w) morelloflavone corresponds to approximately 4 mg/kg morelloflavone for 30 gram animals that consume 4 grams of chow. Animals were housed individually in an air-conditioned room with 12-h light/dark cycle with access to food and water. Body weight of these mice was monitored monthly. After 8 months, animals were sacrificed for analyses of atherosclerosis. Just prior to the sacrifice, blood was sampled from the heart and collected into micro-centrifuge tubes containing EDTA. The entire aortae were excised. All animal experimentation protocols were performed according to the protocol approved by the Institutional Animal Care and Use Committee (IACUC) of the University of Texas Health Science Center at Houston, in accordance with the National Institutes of Health guidelines.

The subject of data set [2] is vascular smooth muscle cells. Put plainly: Scratch wound cell migration assay. The data set is classed as cell-based, mouse. The note with it: for migration index: 18 hrs. On the procedure: (§1) Mouse vascular smooth muscle cells, isolated as described (13), were maintained in 231 media (Cascade Biologics, Portland, Oreg.) supplemented with SMGS (Cascade Biologics) in a humidified incubator at 37° C. with 5% CO2. Cells from passages 4-9 were used in all experiments. All experiments were performed in subconfluent, unsynchronized cells growing in SMGS except for the lamellipodium formation assay.
Vascular smooth muscle cells that had been grown to confluence in 6-well culture plates were scratched with a sterile […] pipette tip and exposed to various concentrations of morelloflavone. The cells were allowed to migrate onto the plastic surface for 18 hrs and photographed. A migration index was determined based on the number of cells that migrated onto 1 mm^2 free plastic surface, using the Image J software (NIH).

Data set [3] has as its system vascular smooth muscle cells. Briefly: Invasion assay (modified Boyden chamber). The note with it: 1 mM morelloflavone, 8-hour incubation. The data set is classed as cell-based, mouse. How it is done: as §1
The lower chambers of the ChemoTx® Disposable Chemotaxis System (NeuroProbe, Gaithersburg, Md.) were filled with […] of SMGS diluted in 231 medium at the appropriate concentrations (0-10%). A filter membrane ([…] pore size) was positioned over the lower wells, and 1×10^4 vascular smooth muscle cells suspended in […] 231 medium (without morelloflavone) were placed on the test sites within circular hydrophobic masks on the upper side of the filter plate (n=5 each). […] After additional 8-hour incubation, cells on the upper surface of the membrane, i.e., cells that had not migrated, were scraped off by Q-tips, and cells that had migrated to the lower surface were fixed and stained by hematoxylin solution and counted. Migrated cell 6 numbers were calculated as the number of cells migrated per 8.0 mm^2 test site surface area.

Another data set relates to ERK. Briefly: Western blot, phosphorylation of ERK. The data set is classed as cell-based, mouse. To be noted: low concentrations (0.1 & 1 mM). How it is done: To assess the phosphorlyation status of ERK, […] of whole cell lysates was loaded onto SDS-PAGE, and Western blot analysis was done using anti-p-ERK (Santa Cruz; E-4; sc-7383) and anti-ERK (Santa Cruz; K-23; sc-94) antibodies. To detect active RhoA, Rac1 and Cdc42, generated GST-tagged RhoA binding domain of Rhotekin protein (GST-Rhotekin-RBD) and GST-tagged p21-binding domain of p21-activated kinase 1 (PAK1)(GST-PAK1-PBD) were first generated. Briefly, E. coli BL21 cells transformed with pGEX4T-PAK1-PBD or pGEX4T-Rh,otekin-RBD were grown at 37° C. and expression of recombinant protein was induced by addition of 0.1 mM IPTG for 3 hours. Cells were resuspended in lysis buffer (50 mM Tris-HCl, pH 8.0, 10% glycerol, 20% sucrose, 2 mM DTT, 1 mg/ml leupeptin, 1 mg/ml pepstatin, and 1 mg/ml aprotinin), sonicated, and centrifuged at 4° C. for 30 min at 45,000 g. The supernatant was incubated with glutathione sepharose 4B beads (GE-Amersham, Piscataway, N.J.) for 1 hour at 4° C., and then washed 3 times in lysis buffer. Using these GST-proteins, GTPase activation assays were performed as described.
Background: In western blotting, separated proteins are transferred to a membrane and probed.

For data set [4], the system named is vascular smooth muscle cells. Briefly: Cell cycle analysis by flow cytometry. To be noted: concentrations up to 10 mM (10 μM), 24 hr. The data set is classed as cell-based, mouse. On the procedure: as §1
Vascular smooth muscle cells (1×106) were seeded onto 10-cm dishes and treated with various concentrations of morelloflavone. After 24 hr incubation, the cells were fixed with 70% ethanol at 4° C. overnight, treated with RNAse in PBS, stained with propidium iodide (Sigma, St. Louis, Mo.), and subjected to flow cytometric DNA content analysis using Epics XL (Beckman-Coulter, Miami, Fla.). The percentages of cells in G1, S, and G2/M phases were determined using Multi-cycle system software (Phoenix Flow System, San Diego, Calif.).

Data set [5] concerns vascular smooth muscle cells. Put plainly: MTT cell death (viability) assay. The data set is classed as cell-based, mouse. Further details: dose or concentration left out as unconfirmed. The note with it: 48 hrs. On the procedure:
Mouse vascular smooth muscle cells, isolated as described (13), were maintained in 231 media (Cascade Biologics, Portland, Oreg.) supplemented with SMGS (Cascade Biologics) in a humidified incubator at 37° C. with 5% CO2. Cells from passages 4-9 were used in all experiments. All experiments were performed in subconfluent, unsynchronized cells growing in SMGS except for the lamellipodium formation assay. Vascular smooth muscle cells were plated at 1×10^4 cells per well in 96-well culture plates and incubated overnight. The cells were treated with various concentrations of morelloflavone for 48 hrs. Then, the cells were exposed to MTT labeling reagent at 10 mg/mL for 4 hrs and solubilized in 0.01 N HCl containing 10% SDS overnight. Formed formazan was measured via spectrophotometry at 600 nm.

Turning to `O=C1c2c(O)cc(O)cc2O[C@H](c2ccc(O)cc2)[C@H]1c1c(O)cc(O)c2c(=O)cc(-c3ccc(O)c(O)c3)oc12` [morelloflavone, 5,7, 4′, 5″, 7″, 3″, 4″-heptahydroxy-[3,8″]-flavonylflavanone], the Body weight in data set [1] (1 month) was 22.6 ± 1.5 gm; in data set [1] (2 months) it was 24.0 ± 1.6 gm; in data set [1] (3 months), 25.4 ± 1.5 gm; in data set [1] (4 months), 26.2 ± 1.5 gm; in data set [1] (5 months), 26.8 ± 1.3 gm; in data set [1] (6 months), 27.5 ± 1.7 gm. Besides, the Body weight in data set [1] (7 months) was 28.2 ± 2.5 gm; in data set [1] (Final (8 months)), 28.4±2.3 gm; in data set [1] (Final (8 months), listed as Morelloflavone), 28.4 ± 2.3 gm; in data set [1] (Initial (0 month), Ldlr−/−Apobec1−/− mice, N = 12), 22.3 ± 1.4 gm. In addition, in data set [2] (0-100 mM, effect from 1 mM (1 μM)), the “effect on vascular smooth muscle cell migration” value is given as “inhibited in a dose-dependent fashion; also recorded: profound effects on migration; also recorded: blocks”. The migration index in data set [2] (1 mM morelloflavone) is reported as 487.6±36.9 cells/mm^2; in data set [2] (10 mM morelloflavone) it was 411.3±39.5 cells/mm^2; in data set [2] (100 mM morelloflavone), 191.86±32.8 cells/mm^2. Further, the “effect on vascular smooth muscle cell migration/invasion towards SMGS” value in data set [3] is given as “significantly blocked; also recorded: blocks”. Moreover, the “phosphorylation of ERK” value in the data set with ERK was “inhibited; also recorded: robustly decreased phosphorylation; also recorded: blocks”. The “effect on cell cycle progression” value in data set [4] is “did not significantly affect; also recorded: does not affect cell cycle progression”. The “cytotoxicity / cell survival (MTT)” value in data set [5] is recorded as “no cytotoxicity; also recorded: does not affect; also recorded: not cytotoxic; also recorded: does not induce cytotoxicity”.
